Experiments:
IU1-47 + AZD7762 = compound: CC1=CC(=C(N1C2=CC=C(C=C2)Cl)C)C(=O)CN3CCCCC3 [IU1-47] + NC(=O)Nc1cc(-c2cccc(F)c2)sc1C(=O)N[C@H]1CCCNC1 [AZD7762] (partner 0.2 µM); assay: relative viability (nuclei count vs DMSO), 5 days (fraction); higher = more cells survive
Method in brief: (§1)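 After 5 days of treatment, lung cancer cells in 1536-well plates were fixed and stained in a single step (final 0.05% Triton X-100, 1% formaldehyde, 1 ug/ml Hoechst) and their nuclei counted on 4× images. Treatment had been applied by pin tool the day after seeding as one drug alone or as a fixed anchor-drug dose with five library-drug doses (not always all listed) in √10 steps. Relative viability is the nuclei count of treated wells divided by that of vehicle wells, and values are medians of duplicate plates.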

IU1-47 + Trametinib = compound: CC1=CC(=C(N1C2=CC=C(C=C2)Cl)C)C(=O)CN3CCCCC3 [IU1-47] + CC(=O)Nc1cccc(-n2c(=O)n(C3CC3)c(=O)c3c(Nc4ccc(I)cc4F)n(C)c(=O)c(C)c32)c1 [Trametinib] (partner 0.02 µM); assay: as above
Method in brief: as §1

Q: Which results are given for NCI-H1666?
A: relative viability (IU1-47 + AZD7762; first compound 0.08 µM): 0.866; relative viability (IU1-47 + AZD7762; first compound 0.253 µM): 0.86; relative viability (IU1-47 + AZD7762; first compound 0.8 µM): 0.854; relative viability (IU1-47 + AZD7762; first compound 2.53 µM): 0.803; relative viability (IU1-47 + AZD7762; first compound 8 µM): 0.815; relative viability (IU1-47 + Trametinib; first compound 0.08 µM): 1; relative viability (IU1-47 + Trametinib; first compound 0.253 µM): 0.871; relative viability (IU1-47 + Trametinib; first compound 0.8 µM): 0.851; relative viability (IU1-47 + Trametinib; first compound 2.53 µM): 0.916; relative viability (IU1-47 + Trametinib; first compound 8 µM): 0.901

Q: NCI-H1703 was tested. Which relative viability (IU1-47 + AZD7762; first compound 0.08 µM) did it give?
A: The relative viability was 0.0968.

Q: What about the relative viability (IU1-47 + AZD7762; first compound 0.253 µM) of the same cell line?
A: The relative viability was 0.172.

Q: What about the relative viability (IU1-47 + AZD7762; first compound 0.8 µM) of the same cell line?
A: The relative viability was 0.133.

Q: And the relative viability (IU1-47 + AZD7762; first compound 8 µM)?
A: The relative viability was 0.112.

Q: For NCI-H1734, which relative viability (IU1-47 + AZD7762; first compound 0.08 µM) is on record?
A: The relative viability was 0.639.

Q: And the relative viability (IU1-47 + AZD7762; first compound 0.253 µM)?
A: The relative viability was 0.481.

Q: What about the relative viability (IU1-47 + AZD7762; first compound 0.8 µM) of the same cell line?
A: The relative viability was 0.487.

Q: What about the relative viability (IU1-47 + AZD7762; first compound 2.53 µM) of the same cell line?
A: Its relative viability is 0.383.

Q: And the relative viability (IU1-47 + AZD7762; first compound 8 µM)?
A: The relative viability was 0.517.

Q: And the relative viability (IU1-47 + Trametinib; first compound 0.08 µM)?
A: Its relative viability is 0.867.

Q: What about the relative viability (IU1-47 + Trametinib; first compound 0.253 µM) of the same cell line?
A: Its relative viability is 0.67.

Q: What about the relative viability (IU1-47 + Trametinib; first compound 0.8 µM) of the same cell line?
A: The relative viability was 0.593.

Q: What about the relative viability (IU1-47 + Trametinib; first compound 2.53 µM) of the same cell line?
A: The relative viability was 0.647.

Q: And the relative viability (IU1-47 + Trametinib; first compound 8 µM)?
A: Its relative viability is 0.645.

Q: For NCI-H1755, which relative viability (IU1-47 + AZD7762; first compound 0.08 µM) is on record?
A: Its relative viability is 0.429.

Q: And the relative viability (IU1-47 + AZD7762; first compound 0.253 µM)?
A: Its relative viability is 0.557.

Q: And the relative viability (IU1-47 + AZD7762; first compound 0.8 µM)?
A: The relative viability was 0.57.

Q: What about the relative viability (IU1-47 + AZD7762; first compound 2.53 µM) of the same cell line?
A: The relative viability was 0.443.

Q: What about the relative viability (IU1-47 + AZD7762; first compound 8 µM) of the same cell line?
A: The relative viability was 0.377.

Q: What about the relative viability (IU1-47 + Trametinib; first compound 0.08 µM) of the same cell line?
A: The relative viability was 0.794.

Q: And the relative viability (IU1-47 + Trametinib; first compound 0.253 µM)?
A: Its relative viability is 0.756.

Q: And the relative viability (IU1-47 + Trametinib; first compound 0.8 µM)?
A: Its relative viability is 0.891.

Q: And the relative viability (IU1-47 + Trametinib; first compound 2.53 µM)?
A: Its relative viability is 0.812.

Q: And the relative viability (IU1-47 + Trametinib; first compound 8 µM)?
A: The relative viability was 0.794.

Q: For NCI-H1792, which relative viability (IU1-47 + AZD7762; first compound 0.08 µM) is on record?
A: Its relative viability is 0.501.

Q: What about the relative viability (IU1-47 + AZD7762; first compound 0.253 µM) of the same cell line?
A: Its relative viability is 0.613.

Q: And the relative viability (IU1-47 + AZD7762; first compound 0.8 µM)?
A: Its relative viability is 0.643.

Q: What about the relative viability (IU1-47 + AZD7762; first compound 2.53 µM) of the same cell line?
A: The relative viability was 0.666.

Q: And the relative viability (IU1-47 + AZD7762; first compound 8 µM)?
A: The relative viability was 0.619.

Q: And the relative viability (IU1-47 + Trametinib; first compound 0.08 µM)?
A: The relative viability was 0.569.

Q: And the relative viability (IU1-47 + Trametinib; first compound 0.253 µM)?
A: The relative viability was 0.392.

Q: And the relative viability (IU1-47 + Trametinib; first compound 0.8 µM)?
A: The relative viability was 0.437.

Q: What about the relative viability (IU1-47 + Trametinib; first compound 2.53 µM) of the same cell line?
A: The relative viability was 0.402.

Q: And the relative viability (IU1-47 + Trametinib; first compound 8 µM)?
A: The relative viability was 0.422.

Q: Which relative viability (IU1-47 + AZD7762; first compound 0.08 µM) does the source give for NCI-H1793 here?
A: The relative viability was 0.716.

Q: What about the relative viability (IU1-47 + AZD7762; first compound 0.8 µM) of the same cell line?
A: The relative viability was 0.516.

Q: And the relative viability (IU1-47 + AZD7762; first compound 2.53 µM)?
A: Its relative viability is 0.319.

Q: And the relative viability (IU1-47 + AZD7762; first compound 8 µM)?
A: Its relative viability is 0.338.

Q: What about the relative viability (IU1-47 + Trametinib; first compound 0.08 µM) of the same cell line?
A: Its relative viability is 0.42.

Q: What about the relative viability (IU1-47 + Trametinib; first compound 0.8 µM) of the same cell line?
A: The relative viability was 0.554.

Q: And the relative viability (IU1-47 + Trametinib; first compound 2.53 µM)?
A: Its relative viability is 0.513.

Q: What about the relative viability (IU1-47 + Trametinib; first compound 8 µM) of the same cell line?
A: The relative viability was 0.416.

Q: With NCI-H1915 as the cell line, how does the relative viability (IU1-47 + AZD7762; first compound 0.08 µM) read?
A: Its relative viability is 0.712.

Q: And the relative viability (IU1-47 + AZD7762; first compound 0.253 µM)?
A: Its relative viability is 0.71.

Q: What about the relative viability (IU1-47 + AZD7762; first compound 0.8 µM) of the same cell line?
A: Its relative viability is 0.671.

Q: And the relative viability (IU1-47 + AZD7762; first compound 2.53 µM)?
A: Its relative viability is 0.655.

Q: What about the relative viability (IU1-47 + AZD7762; first compound 8 µM) of the same cell line?
A: Its relative viability is 0.703.

Q: What about the relative viability (IU1-47 + Trametinib; first compound 0.08 µM) of the same cell line?
A: Its relative viability is 0.296.

Q: And the relative viability (IU1-47 + Trametinib; first compound 0.253 µM)?
A: The relative viability was 0.288.

Q: What about the relative viability (IU1-47 + Trametinib; first compound 0.8 µM) of the same cell line?
A: Its relative viability is 0.28.

Q: And the relative viability (IU1-47 + Trametinib; first compound 2.53 µM)?
A: The relative viability was 0.3.

Q: And the relative viability (IU1-47 + Trametinib; first compound 8 µM)?
A: The relative viability was 0.324.

Q: NCI-H1944 was tested. Which relative viability (IU1-47 + AZD7762; first compound 0.08 µM) did it give?
A: Its relative viability is 0.794.

Q: What about the relative viability (IU1-47 + AZD7762; first compound 0.253 µM) of the same cell line?
A: Its relative viability is 0.612.

Q: And the relative viability (IU1-47 + AZD7762; first compound 0.8 µM)?
A: Its relative viability is 0.601.

Q: And the relative viability (IU1-47 + AZD7762; first compound 2.53 µM)?
A: Its relative viability is 0.445.

Q: What about the relative viability (IU1-47 + AZD7762; first compound 8 µM) of the same cell line?
A: Its relative viability is 0.464.

Q: And the relative viability (IU1-47 + Trametinib; first compound 0.08 µM)?
A: Its relative viability is 0.453.

Q: What about the relative viability (IU1-47 + Trametinib; first compound 0.253 µM) of the same cell line?
A: Its relative viability is 0.473.

Q: And the relative viability (IU1-47 + Trametinib; first compound 0.8 µM)?
A: Its relative viability is 0.414.

Q: What about the relative viability (IU1-47 + Trametinib; first compound 2.53 µM) of the same cell line?
A: The relative viability was 0.386.

Q: What about the relative viability (IU1-47 + Trametinib; first compound 8 µM) of the same cell line?
A: Its relative viability is 0.415.

Q: NCI-H1975 was tested. Which relative viability (IU1-47 + AZD7762; first compound 0.08 µM) did it give?
A: The relative viability was 0.698.

Q: What about the relative viability (IU1-47 + AZD7762; first compound 0.253 µM) of the same cell line?
A: Its relative viability is 0.766.

Q: What about the relative viability (IU1-47 + AZD7762; first compound 0.8 µM) of the same cell line?
A: The relative viability was 0.728.

Q: And the relative viability (IU1-47 + AZD7762; first compound 2.53 µM)?
A: The relative viability was 0.797.

Q: And the relative viability (IU1-47 + AZD7762; first compound 8 µM)?
A: The relative viability was 0.756.

Q: And the relative viability (IU1-47 + Trametinib; first compound 0.08 µM)?
A: Its relative viability is 0.337.

Q: What about the relative viability (IU1-47 + Trametinib; first compound 0.253 µM) of the same cell line?
A: The relative viability was 0.324.

Q: What about the relative viability (IU1-47 + Trametinib; first compound 0.8 µM) of the same cell line?
A: The relative viability was 0.464.

Q: And the relative viability (IU1-47 + Trametinib; first compound 2.53 µM)?
A: The relative viability was 0.328.

Q: And the relative viability (IU1-47 + Trametinib; first compound 8 µM)?
A: The relative viability was 0.322.
